Patent US9980943B2, “Methods of treating muscular dystrophy” (BOARD OF REGENTS OF THE NEVADA SYSTEM OF HIGHER EDUCATION, …, priority 2013, dated 2018)

What was measured:
Type in all cases: cell-based, mouse
[1] = system: β-galactosidase in CMV-LacZ C2C12 myotubes; assay: CMV-LacZ secondary screen in C2C12 myotubes (β-Gal stabilizing assay); conditions: C2C12 CMV-LacZ myotubes, fold relative to DMSO
Summary of the method: (§1)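 β-gal stabilization was measured in C2C12 myoblasts or myotubes stably transfected with a CMV-driven LacZ construct, using the FDG β-gal assay. Compounds were tested in dose-response at 0.5, 1, 5, 10, 20 and 40 μM, with two replicates per point.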

[2] = system: α7 integrin (LacZ reporter in α7+/LacZ myotubes); assay: Myotube α7 integrin FDG assay (Burkin assay in myotubes, 96-well); conditions: myotubes
[3] = system: β-galactosidase in CMV-LacZ C2C12 myoblasts; assay: CMV-LacZ secondary screen in C2C12 myoblasts (β-Gal stabilizing assay); conditions: CMV-LacZ C2C12 myoblasts
Summary of the method: as §1

[4] = system: α7 integrin (LacZ reporter in α7βgal+/− myoblasts); assay: Myoblast α7+/LacZ integrin FDG assay (Burkin assay in myoblasts, 96-well); conditions: α7+/LacZ myoblasts, 96-well

| Structure (SMILES) | CMV-LACZ in Myotubes, signal relative to DMSO ([1]; 0.5 uM) | CMV-LACZ in Myotubes, signal relative to DMSO ([1]; 1 uM) | CMV-LACZ in Myotubes, signal relative to DMSO ([1]; 5 uM) | CMV-LACZ in Myotubes, signal relative to DMSO ([1]; 10 uM) | CMV-LACZ in Myotubes, signal relative to DMSO ([1]; 20 uM) | CMV-LACZ in Myotubes, signal relative to DMSO ([1]; 40 uM) | Burkin Assay in Myotubes, α7 integrin LacZ reporter signal relative to DMSO ([2]; 0.5 uM) | Burkin Assay in Myotubes, α7 integrin LacZ reporter signal relative to DMSO ([2]; 1 uM) | Burkin Assay in Myotubes, α7 integrin LacZ reporter signal relative to DMSO ([2]; 5 uM) | Burkin Assay in Myotubes, α7 integrin LacZ reporter signal relative to DMSO ([2]; 10 uM) | Burkin Assay in Myotubes, α7 integrin LacZ reporter signal relative to DMSO ([2]; 20 uM) | Burkin Assay in Myotubes, α7 integrin LacZ reporter signal relative to DMSO ([2]; 40 uM) | CMV-LACZ in Myoblasts (β-galactosidase activity relative to DMSO) ([3]; 0.5 uM) | CMV-LACZ in Myoblasts (β-galactosidase activity relative to DMSO) ([3]; 1 uM) | CMV-LACZ in Myoblasts (β-galactosidase activity relative to DMSO) ([3]; 5 uM) | CMV-LACZ in Myoblasts (β-galactosidase activity relative to DMSO) ([3]; 10 uM) | CMV-LACZ in Myoblasts (β-galactosidase activity relative to DMSO) ([3]; 20 uM) | CMV-LACZ in Myoblasts (β-galactosidase activity relative to DMSO) ([3]; 40 uM) | Burkin Assay in Myoblasts, signal relative to DMSO ([4]; 0.5 uM) | Burkin Assay in Myoblasts, signal relative to DMSO ([4]; 1 uM) | also measured |
| --- | --- | --- | --- | --- | --- | --- | --- | --- | --- | --- | --- | --- | --- | --- | --- | --- | --- | --- | --- | --- | --- |
| COc1ccc(CN2CCNC(=O)C2CC(=O)NCCc2c[nH]c3ccccc23)c(OC)c1 (stereo not drawn) [MLS000734270-01] | 1.0019 | 1.0038 | 1.1042 | 1.0885 | 1.1158 | 0.9095 | 0.941 | 0.8975 | 1.083 | 0.9081 | 0.8558 | 0.8102 | 0.9296 | 0.8379 | 0.9337 | 0.9468 | 1.0122 | 0.9548 | 1.0135 | 1.048 | Burkin Assay in Myoblasts, signal relative to DMSO ([4]; 5 uM): 1.21; Burkin Assay in Myoblasts, signal relative to DMSO ([4]; 10 uM): 0.955; Burkin Assay in Myoblasts, signal relative to DMSO ([4]; 20 uM): 0.9739; Burkin Assay in Myoblasts, signal relative to DMSO ([4]; 40 uM): 0.9873 |
| c1ccc(-c2cc(-c3nc4ccccc4[nH]3)c3ccccc3n2)cc1 [MLS000554416-01] | 1.0019 | 0.9629 | 0.8969 | 0.9798 | 0.8760 | 0.7060 | 0.9146 | 0.9261 | 0.8366 | 0.9334 | 0.6816 | 0.4915 | 1.1310 | 1.3983 | 0.8594 | 1.1123 | 1.1077 | 0.8611 | 1.211 | 1.0679 | Burkin Assay in Myoblasts, signal relative to DMSO ([4]; 5 uM): 0.9915; Burkin Assay in Myoblasts, signal relative to DMSO ([4]; 10 uM): 0.9591; Burkin Assay in Myoblasts, signal relative to DMSO ([4]; 20 uM): 1.087; Burkin Assay in Myoblasts, signal relative to DMSO ([4]; 40 uM): 0.8248 |
